Measurements published in article PMC10889769, “The Molecular and Functional Characterization of Sensory Neuron Membrane Protein 1b (SNMP1b) from Cyrtotrachelus buqueti (Coleoptera: Curculionidae)” (Insects, 2024).
Where two headings read alike, the source gives them in different places.

Experiments:
CbuqSNMP1b [1] = target: T1, CbuqSNMP1b (Cyrtotrachelus buqueti, UniProt A0A9E9JN76); assay: Binding of 1-NPN to CbuqSNMP1b (fluorescence titration, Scatchard analysis); details: 2 μM CbuqSNMP1b titrated with 2–40 μM 1-NPN; Scatchard plot; read-out: dissociation constant (Kd) of the CbuqSNMP1b/1-NPN complex
Experimental: Binding affinities of CbuqSNMP1b to 14 volatiles (Table 1) emitted by female adults of C. buqueti were measured with the fluorescence competition binding assays using N-phenyl-1-naphthylamine (1-NPN) as the fluorescent probe. 1-NPN and all of the other chemicals (the purity being at least more than 96%) used in the binding assays were purchased from Aladdin Biochemical Technology Co., Ltd. (Shanghai, China). The Lumina fluorescence spectrophotometer (Thermo Fisher Scientific, Waltham, MA, USA) was used to perform fluorescence binding assays with a 1 cm light path quartz cuvette at room temperature. All the slit widths for both excitation and emission were 10 nm. The 1-NPN and all the other chemicals were dissolved in methanol (HPLC-grade) to a final concentration of 1 mM. The binding constant of 1-NPN was determined by titrating a 2 μM solution of the CbuqSNMP1b protein with aliquots of 2–40 μM 1-NPN concentrations. The binding of 1-NPN was measured at an excitation wavelength of 337 nm. The scanning range was 360–560 nm at each concentration and the maximum fluorescence intensities were plotted against the free ligand concentration. […]

CbuqSNMP1b [2] = target: T1, CbuqSNMP1b; assay: Fluorescence competition binding assay with 1-NPN as fluorescent probe
Experimental: 1-NPN and all of the other chemicals (the purity being at least more than 96%) used in the binding assays were purchased from Aladdin Biochemical Technology Co., Ltd. (Shanghai, China). The Lumina fluorescence spectrophotometer (Thermo Fisher Scientific, Waltham, MA, USA) was used to perform fluorescence binding assays with a 1 cm light path quartz cuvette at room temperature. All the slit widths for both excitation and emission were 10 nm. The 1-NPN and all the other chemicals were dissolved in methanol (HPLC-grade) to a final concentration of 1 mM. The binding constant of 1-NPN was determined by titrating a 2 μM solution of the CbuqSNMP1b protein with aliquots of 2–40 μM 1-NPN concentrations. The binding of 1-NPN was measured at an excitation wavelength of 337 nm. The scanning range was 360–560 nm at each concentration and the maximum fluorescence intensities were plotted against the free ligand concentration.

[3] = recombinant CbuqSNMP1b and 1-NPN both at 2 μM, displacement of 1-NPN, room temperature, read-out: IC50

T1 sequence (A0A9E9JN76 entry or part of it): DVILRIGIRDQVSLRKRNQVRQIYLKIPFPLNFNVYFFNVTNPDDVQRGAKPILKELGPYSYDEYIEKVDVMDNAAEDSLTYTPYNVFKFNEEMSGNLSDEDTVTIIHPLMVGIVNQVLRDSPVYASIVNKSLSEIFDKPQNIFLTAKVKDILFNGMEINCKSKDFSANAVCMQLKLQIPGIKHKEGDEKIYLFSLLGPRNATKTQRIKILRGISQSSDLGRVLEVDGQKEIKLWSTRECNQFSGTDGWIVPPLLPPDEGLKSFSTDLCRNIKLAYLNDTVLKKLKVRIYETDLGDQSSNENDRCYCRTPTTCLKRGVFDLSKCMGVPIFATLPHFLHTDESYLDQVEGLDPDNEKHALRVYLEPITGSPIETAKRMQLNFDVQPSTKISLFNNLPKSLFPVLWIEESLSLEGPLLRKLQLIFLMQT

| IC50 (CbuqSNMP1b [2]; [3]) [µM] | SMILES | IC50 (CbuqSNMP1b [2]) [µM] | other results |
| --- | --- | --- | --- |
|  | c1ccc(Nc2cccc3ccccc23)cc1 [1-NPN, N-phenyl-1-naphthylamine] |  | Kd (CbuqSNMP1b [1]): 13.3 µM |
| > 50 | CCCCCC(=O)OCC [Ethyl hexanoate] |  |  |
| > 50 | CCCCCCCC(C)=O [2-Nonanone] |  |  |
|  | c1ccc2scnc2c1 [Benzothiazole] | 13.3 |  |
|  | Cc1cccc(C)c1 [M-xylene] | > 50 |  |
|  | CC(C)=CCC/C(C)=C/CC/C(C)=C/CC/C=C(\C)CC/C=C(\C)CCC=C(C)C [Squalene] | > 50 |  |
| > 50 | CCCCCCCCCCCCCCCC(=O)OC [Methyl hexadecanoate] |  |  |
|  | CCCCOC(=O)c1ccccc1C(=O)OCCCC [Dibutyl phthalate] | 10.4 |  |
|  | C[C@@H]1CC[C@H]2C(C)(C)[C@H]3C[C@@]12CC[C@@]3(C)O [Cedrol] | > 50 |  |
|  | C=C(C)[C@H]1CC=C(C)CC1 [(+)-Limonene] | > 50 |  |
| > 50 | CCCC/C=C/C=C/C=O [trans,trans-2,4-Nonadienal] |  |  |
| > 50 | CCCCCCCCC=O [1-Nonanal] |  |  |
| > 50 | CCCCCCCCCC=O [Decyl aldehyde] |  |  |
|  | C=Cc1ccccc1 [Styrene] | > 50 |  |
|  | Oc1ccccc1 [Phenol] | 24.1 |  |
